Patent publication US7118744B2, “Immunogenic compositions for induction of anti-tumor immunity” (Yeda Research and Development Co., Ltd., priority 1997, dated 2006)
Ends that are not written are not given here.

What was measured:
[1] = test system: p53; experiment: Induction of anti-p53 antibodies in immunized mice, ELISA on wild type p53; assay type: in vivo, mouse; conditions: BALB/c mice immunized with 100 μg of peptide
Procedure: E Coli BL21 (DE3) cells transformed with the T7 expression vector containing regularly spliced mouse p53 cDNA were used to express wild type or mutant p53 as previously described (Shohat-Foord et at., 1991; Wolkowicz et al., 1995). For protein induction, IPTG at a final concentration of 0.4 mM was added when the cells had reached an O.D.600 of 0.8–1.0. Three hours after induction, the cells were harvested from a 200 ml culture by centrifugation, and the pellet was resuspended in 5 ml of ice-cold lysis buffer (20 mM Tris-HCl, pH: 7.4; 500 mM NaCl; 10% glycerol; 1 mM EDTA; 1 mM PMSF; 5 μg/ml leupeptine; 10 μg/ml aprotinin and 0.1% NP40). The lysate was subjected to sonication for 10 cycles of 15 s of sonication followed by 15 s of gentle swirling. The solicited sample was subjected to two cycles of freeze-thaw and then centrifuged for 10 min at 10.000× g. […]
[…] Antibodies were measured after booster immurdzation.
For the ELISA assay flat bottom maxi-sorb plates (Nunc, Roskilde, Denmark) were coated with 50 μl per well of mutant or wild type p53 at a concentration of 10 μg/ml. […] After washing, the plates were incubated with the substrate, p-nitrophenil phosphate disodium (Sigma) and read using an ELISA reader at 405 nm. Sera manifesting an O.D. reading, after substraction of the background, of 0.3 or greater, were scored as positive.

[2] = test system: Meth A Sarcoma Cells; experiment: Rejection of Meth A tumor challenge in immunized mice; assay type: in vivo; conditions: BALB/c mice immunized with 100 μg CDR-based peptide
Procedure: (a) The Meth A tumor is a transplantable 3-methylcholantrene-induced sarcoma of BALB/c origin (Old et al., 1962) that has three mutations in the p53 coding sequence (Arai et al., 1986). The cells were grown in DMEM containing 10% heat-inactivated fetal calf serum (FCS), and passaged through BALB/c mice to select for tumorogenicity. For challenge, mice were injected intradermally with 10^6 Meth A cells. […] Rejection was scored as the disappearance of the tumor mass within 20 days after tumor challenge.
To learn whether immunization with anti-p53 mAb might influence in vivo the development of a tumor bearing a mutated form of the p53 molecule, groups of BALB/c female mice were immunized as above with either mAb 240, mAb 246, mAb 421 or mAb 9E 10. The mice were challenged intradermally with 10^6 Meth A tumor cells 10 days after the boost. Non-immunized mice were also tested.
Immunization of BALB/c mice with peptides V–IX of Example 3 was carried out as described for the whole mAbs in Materials and Methods, section iv, using 100 μg of peptide, and then assayed for the development of anti-p53 antibodies.

Sequence	incidence of mice developing IgG anti-p53 antibodies (ELISA assay) [1]	Incidence of Rejected Tumors [2]
YYCQHIRELTRSEGGPS [Peptide V, includes CDR3 of the light chain of mAb 240]	8/10	4/5
AVYYCARSGSRFDYWGEGTT [Peptide VIII, includes CDR3 of the heavy chain of mAb 248]	–	4/5
GDINPNNGYTIYNQKVKGKA [Peptide VII, includes CDR2 of the heavy chain of mAb 246]	–	5/5
GVYYCWQGTHSPLTFGAGTK [Peptide VI, includes CDR3 of the light chain of mAb 421]	7/10	5/5
VYFCQQSNSWPVHARGGGTK [Peptide IX, includes CDR3 of the light chain of mAb 248]	–	4/5
